Common to all, as to format: functional
For test [1], the target named is T1, Sentrin-specific protease 6 (Homo sapiens, UniProt Q9GZR1).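 Note: Luminescence-based dose-response confirmatory assay of SENP6 inhibition, following up an ultra-high-throughput screen.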
T1 sequence (Q9GZR1 whole entry): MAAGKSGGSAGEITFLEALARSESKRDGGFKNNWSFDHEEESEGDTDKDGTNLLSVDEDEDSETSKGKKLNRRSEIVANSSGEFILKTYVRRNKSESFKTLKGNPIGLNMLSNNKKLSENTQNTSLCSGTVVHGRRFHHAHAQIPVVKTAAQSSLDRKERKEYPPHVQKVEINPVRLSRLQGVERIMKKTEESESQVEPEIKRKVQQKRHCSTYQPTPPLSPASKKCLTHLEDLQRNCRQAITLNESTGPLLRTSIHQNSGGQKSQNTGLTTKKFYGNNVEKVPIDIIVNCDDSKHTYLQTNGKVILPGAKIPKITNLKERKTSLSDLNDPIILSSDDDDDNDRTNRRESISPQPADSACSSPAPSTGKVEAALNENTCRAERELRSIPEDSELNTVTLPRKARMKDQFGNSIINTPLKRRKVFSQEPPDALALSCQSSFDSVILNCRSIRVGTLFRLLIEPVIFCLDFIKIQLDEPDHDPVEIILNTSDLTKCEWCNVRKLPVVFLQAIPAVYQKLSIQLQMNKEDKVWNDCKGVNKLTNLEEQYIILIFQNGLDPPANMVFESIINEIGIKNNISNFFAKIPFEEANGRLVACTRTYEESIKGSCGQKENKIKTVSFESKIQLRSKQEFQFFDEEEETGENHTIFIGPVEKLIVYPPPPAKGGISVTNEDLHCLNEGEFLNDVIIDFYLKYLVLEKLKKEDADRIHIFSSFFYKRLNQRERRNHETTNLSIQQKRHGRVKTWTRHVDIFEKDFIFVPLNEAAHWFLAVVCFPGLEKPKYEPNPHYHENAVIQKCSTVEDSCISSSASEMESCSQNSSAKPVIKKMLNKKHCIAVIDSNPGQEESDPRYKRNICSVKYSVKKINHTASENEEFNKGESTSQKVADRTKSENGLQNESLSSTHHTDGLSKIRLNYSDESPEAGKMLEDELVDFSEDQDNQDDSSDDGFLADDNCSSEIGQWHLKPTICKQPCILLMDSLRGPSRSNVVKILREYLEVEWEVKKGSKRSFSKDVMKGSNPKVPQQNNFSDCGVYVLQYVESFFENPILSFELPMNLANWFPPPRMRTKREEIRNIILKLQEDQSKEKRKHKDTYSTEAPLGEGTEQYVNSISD

The target of test [2] is T2, Sentrin-specific protease 8 (Homo sapiens, UniProt Q96LD8).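 Note: luminescence read-out of SENP8 inhibition, dose-response confirmation following an ultra-high-throughput screen.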
T2 sequence (Q96LD8 whole entry): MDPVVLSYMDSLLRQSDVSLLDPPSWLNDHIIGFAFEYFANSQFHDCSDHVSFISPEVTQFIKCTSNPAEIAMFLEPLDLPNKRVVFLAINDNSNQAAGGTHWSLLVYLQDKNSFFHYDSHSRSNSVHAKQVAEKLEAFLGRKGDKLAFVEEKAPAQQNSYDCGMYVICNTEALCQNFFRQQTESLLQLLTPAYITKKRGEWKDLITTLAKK

The target of test [3] is T3, Short transient receptor potential channel 4 (Mus musculus, UniProt Q9QUQ5).
T3 sequence (Q9QUQ5 whole entry): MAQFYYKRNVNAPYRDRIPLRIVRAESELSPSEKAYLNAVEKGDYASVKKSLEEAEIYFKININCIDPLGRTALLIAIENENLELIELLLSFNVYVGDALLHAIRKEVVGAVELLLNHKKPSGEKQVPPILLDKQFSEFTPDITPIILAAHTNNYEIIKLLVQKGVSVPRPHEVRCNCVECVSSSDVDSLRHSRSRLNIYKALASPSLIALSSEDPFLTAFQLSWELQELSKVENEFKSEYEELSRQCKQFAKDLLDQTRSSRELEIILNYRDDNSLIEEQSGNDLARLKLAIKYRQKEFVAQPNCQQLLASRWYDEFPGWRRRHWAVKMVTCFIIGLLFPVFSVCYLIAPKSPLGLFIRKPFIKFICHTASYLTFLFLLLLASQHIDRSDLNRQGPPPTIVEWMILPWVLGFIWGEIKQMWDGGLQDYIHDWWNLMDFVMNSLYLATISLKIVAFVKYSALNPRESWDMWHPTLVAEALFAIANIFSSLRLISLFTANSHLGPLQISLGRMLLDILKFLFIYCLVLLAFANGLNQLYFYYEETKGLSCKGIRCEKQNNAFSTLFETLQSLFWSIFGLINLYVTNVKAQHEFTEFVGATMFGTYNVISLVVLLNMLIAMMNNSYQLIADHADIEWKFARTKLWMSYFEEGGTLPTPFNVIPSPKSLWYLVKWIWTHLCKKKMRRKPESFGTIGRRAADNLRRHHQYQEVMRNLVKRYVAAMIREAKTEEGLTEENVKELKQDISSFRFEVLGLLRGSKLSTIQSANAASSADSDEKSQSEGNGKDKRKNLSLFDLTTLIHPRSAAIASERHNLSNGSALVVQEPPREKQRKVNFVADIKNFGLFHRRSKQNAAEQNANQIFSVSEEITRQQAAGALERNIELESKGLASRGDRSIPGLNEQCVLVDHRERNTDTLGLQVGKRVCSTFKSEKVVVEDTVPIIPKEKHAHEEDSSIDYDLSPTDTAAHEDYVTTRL
As to the kind of experiment: mouse TRPC4 channel activators, dose response, cell-based, HEK293 TRPC4/mu-opioid, Fluo-4 calcium (AID 434937).

Counter-ions that a name gives are not always drawn. Activity calls are given as the source filed them. Cut-off read from the data, not from the text of the source, for most assays here: actives have a measured IC50 and inactives only a lower limit.

Turning to `CCC(C)n1c(NC(=O)c2ccccc2)c(C#N)c2nc3ccccc3nc21` (stereo unspecified), the IC50 in test [1] was 0.984 µM (active); in test [2], 2.24 µM (active). Turning to `CCN1/C(=C\c2ccc3ccccc3[n+]2CC)Sc2cc(C)ccc21`, the EC50 in test [3] was 4.73 µM (active).

Turning to `O=C(CCl)Oc1ccc2occ(C(=O)c3cccs3)c2c1`, the values for the 50% inhibitory concentration (IC50) in test [1] and in test [2] were 30.7 µM (active) and 38.2 µM (active), respectively.

Turning to `CC[C@@H](CO)NC(=O)[C@@H]1C=C2c3cccc4c3c(cn4C)C[C@H]2N(C)C1` [METHYSERGIDE MALEATE], the concentration giving a half-maximal response (EC50) in test [3] was 1.5 µM (active).

In general, IC50 refers to the concentration that inhibits the measured activity by half. A word on the EC50: it is the concentration needed to bring the measured effect to its halfway point.

Source of the values: ChEMBL document CHEMBL1201862, “PubChem BioAssay data set” (2004).
